Earlier results as cited in patent US8128958B2, “Sustained release pharmaceutical composition” (Astellas Pharma Inc., priority 2003, dated 2012).
Where a name gives a salt, the structure may show the parent alone.

How the values were obtained:
[1] = not given; remark: listed apart in the source

day on which plasma concentration profiles reached the steady state (repeatedly administered per os for seven days): 4 days | frequency of orthostatic syncope, headache and sleepiness ([1]; package insert, psychoneural area): less than 0.1%
Compound: CCOc1ccccc1OCCN[C@H](C)Cc1ccc(OC)c(S(N)(=O)=O)c1 [tamsulosin hydrochloride, (R)(−)-5-[2-[[2-(o-ethoxyphenoxy)ethyl]-amino]propyl]-2-methoxybenzenesulfonamide]
Cmax and AUC versus dose (0.1 to 0.6 mg orally, healthy adult volunteers): increased almost in proportion to the dose administered | adverse reactions (including abnormal clinical data) presumably related to the agent ([1]; 104 cases among 4724 cases, research in use upon approval and post marketing surveillance in Japan): 2.2% | frequency of hypotension, postural hypotension, blood pressure, tachycardia and palpitation ([1]; package insert, circulatory area): less than 0.1%
